PMC5979600, “An Organic Solvent-Tolerant Lipase with Both Hydrolytic and Synthetic Activities from the Oleaginous Fungus Mortierella echinosphaera” (International Journal of Molecular Sciences, 2018)

System: T1, extracellular lipase from Mortierella echinosphaera CBS 575.75 (M. echinosphaera lipase)
T1 construct: native enzyme purified from culture filtrate (ammonium sulfate, Sephadex G-75, Macro-Prep High Q, Sephacryl S-200 HR); about 30 kDa by SDS-PAGE
Assay: p-nitrophenol release, Lineweaver-Burk
Type: biochemical
Settings: pH 6.8, 25 °C, 30 min, 0.05-3.2 mM substrate; free enzyme

Km [µM]	Structure (SMILES)
333	CCCCCCCCCC(=O)Oc1ccc([N+](=O)[O-])cc1 [pNP-decanoate]
336	CCCCCCCCCCCCCCCC(=O)Oc1ccc([N+](=O)[O-])cc1 [p-nitrophenyl palmitate]
